Assay results reported in US20080312128A1, “Cellular Biomarker Antioxidant Assay and Uses Thereof” (priority 2005, published 2008).
Like-named read-outs stand apart in the source and are kept apart here.

Experiments:
JunB = test: H2O2-induced JunB transcription in cultured RPE cells, qPCR; format: cell-based, human; conditions: for Fold change, JunB, 1-Hr / Fold change, JunB, 4-Hr: ARPE-19 cells
Experimental: (§1) Human retinal pigment epithelial (RPE) cells (ARPE-19) were cultured in DMEM/F12 media supplemented with 10% fetal bovine serum (FBS, Atlanta Biologicals, Norcross, Ga.) plus L-glutamine, penicillin, and streptomycin in an atmosphere of humidified 95% air and 5% CO2 at 37° C. until confluent in single wells of 6-well plates. The cells were initially grown in DMEM/F12 with FBS to reduce the time to reach confluence. Cells were then rinsed and fed with NR-1 media (BioSource, Camarillo, Calif.). NR-1 is a chemically defined tissue culture medium supplemented with EGF, insulin, hydrocortisone, and transferrin. After feeding with NR-1, the confluent cells were cultured for 3 days to stabilize gene expression.
(§2) The OS was not rinsed from the culture; rather, the NR-1 medium was aspirated and TRI Reagent (Sigma, St. Louis, Mo.) was immediately added to lyse the cells and stabilize the RNA at the designated time-points.
(§3) Total cellular RNA was isolated from the cells at time points 0, 1, and 4 hours using TRI reagent as described above using the protocol recommended by the manufacturer. The RNA was cleaned of trace DNA contaminants by treatment with DNA-Free (Ambion, Austin, Tex.) and the concentration was measured by spectrophotometry. The purified RNA was dissolved in DEPC-treated double distilled water at the concentration of 0.2 mg/ml. and stored at −80° C.
(§4) One μg of total cellular RNA was reversed transcribed (RT) in 20 μL of reaction volume using the Reverse Transcription System using the manufacturer's recommended protocol (Promega, Madison, Wis.). The RT product was diluted 1:5 with DNase-free water and quantitative PCR (qPCR) amplification was performed in 50 μl of buffer containing 1×SYBR® Green PCR Master mix (ABI), optimized forward and reverse qPCR primers and 5 μl of the 1:5 diluted RT product. The qPCR reaction was started at a 50° C. hold for 2 minutes, then 95° C. hold for 10 minutes, followed by 40 cycles of 95° C. for 15 seconds, and 60° C. for 1 minute. The reaction was performed using the ABI PRISM® 7700 Sequence Detection System.

HO-1 = test: H2O2-induced HO-1 transcription in cultured RPE cells, qPCR; format: cell-based, human; conditions: for Fold change, HO-1, 1-Hr / Fold change, HO-1, 4-Hr: ARPE-19 cells
[1] = system: CRYAA, CRYBB, and CRYGS crystallin genes; test: H2O2-induced transcription of crystallin genes in cultured RPE cells, qPCR; format: cell-based, human; conditions: 100 μM and 500 μM H2O2, 1 and 4 hours
Experimental: Transcription of the above-identified crystallin genes was quantified at 1 and 4 hours in cells exposed to 100 μM and 500 μM H2O2-induced OS, and compared to controls.

ARPE-19 cells = conditions: confluent cell culture, MTT
CRYBA = conditions: ARPE-19 cells
Experimental: as §1, §2, §3, §4

FosB = conditions: ARPE-19 cells
Experimental: For OS studies, ARPE19 cells were incubated for 1 hour at 37° C. in conditioned NR-1 media containing 50-500 μM H202. Cells were either not rinsed (1-, 2-, and 4-hour isolations) or rinsed using the Media Rinse 2 method (4-, 8-, and 24-hour isolations). At designated time-points, NR-1 medium was aspirated and the total cellular RNA was immediately isolated in TRI reagent (Sigma). Single wells were used in each plate to minimize any influence of temperature shifts on gene expression. All procedures were performed in a dim red light environment to reduce any influence of light on gene expression. RNA was isolated either before the onset of OS(O-hour control), or at 1, 2, 4, 8, or 24 hours after the start of the 1-hour OS treatment.
Assays of oxidative stress as described above with RPE cells were performed using the “no touch” technique, to determine whether OS-specific responses of FosB gene expression occurred during the first 8 hours after induction of stress. In addition, a dose-response study of FosB gene expression was performed to determine whether the degree of OS could be quantified using this molecular response.
as §1, §2, §3, §4

FosL = test: H2O2-induced FosL transcription in cultured RPE cells, qPCR; format: cell-based, human
Experimental: as §1, with “After feeding with NR-1, the confluent cells were cultured for 3 days to stabilize gene expression.” left out
as §3, with “The purified RNA was dissolved in DEPC-treated double distilled water at the concentration of 0.2 mg/ml. and stored at −80° C.” left out
One μg of total cellular RNA was reversed transcribed (RT) in 20 μL of reaction volume using the Reverse Transcription System using the manufacturer's recommended protocol (Promega, Madison, Wis.). The RT product was diluted 1:5 with DNase-free water and quantitative PCR (qPCR) amplification was performed in 50 μl of buffer containing 1×SYBR® Green PCR Master mix (ABI), optimized forward and reverse qPCR primers and 5 μl of the 1:5 diluted RT product. […]

ATF3 = test: H2O2-induced ATF3 transcription in cultured RPE cells, qPCR; format: cell-based, human; conditions: for Fold change in expression, ATF3, 1-Hr / Fold change in expression, ATF3, 4-Hr: ARPE-19 cells
Experimental: as §1, §2, §3, §4

cFos = test: H2O2-induced c-Fos transcription in cultured RPE cells, qPCR; format: cell-based, human; conditions: for Fold change in expression, cFos, 1-Hr / Fold change in expression, cFos, 4-Hr: ARPE-19 cells
Experimental: as §1, §2, §3, §4

OO [H2O2]
64 fold: Fold change in expression, FosB, 4-Hr (FosB; 500 μM H2O2, 4 h)
6 fold: Fold change, HO-1, 4-Hr (HO-1; 350 μM H2O2, 4 h) | Fold change, HO-1, 4-Hr (HO-1; 500 μM H2O2, 4 h) | Fold change in expression, FosB, 4-Hr (FosB; 100 μM H2O2, 4 h) | Fold change in expression, FosB, 1-Hr (FosB; 200 μM H2O2, 1 h) | Fold change in expression, FosB, 4-Hr (FosB; 200 μM H2O2, 4 h) | Fold change in expression, FosB, 1-Hr (FosB; 350 μM H2O2, 1 h)
4 fold: Fold change, JunB, 4-Hr (JunB; 200 μM H2O2, 4 h) | Fold change, JunB, 4-Hr (JunB; 350 μM H2O2, 4 h) | Fold change, JunB, 4-Hr (JunB; 500 μM H2O2, 4 h) | Fold change in expression, CRYBA, 1-Hr (CRYBA; 500 μM H2O2, 1 h) | Fold change in expression, CRYBA, 4-Hr (CRYBA; 500 μM H2O2, 4 h) | Fold change in expression, cFos, 1-Hr (cFos; 200 μM H2O2, 1 h)
above 50 μM: H2O2 level above which HO-1 threshold response is seen (HO-1)
up to 12 fold: Increase in transcription of c-Fos (maximum) (cFos; after 1 hour of OS, 0-500 μM H2O2)
~3 fold: Increase in ATF3 transcription (ATF3; 1 hour after OS)
2 fold: Fold change, HO-1, 1-Hr (HO-1; 50 μM H2O2, 1 h) | Fold change, HO-1, 4-Hr (HO-1; 50 μM H2O2, 4 h) | Fold change, HO-1, 1-Hr (HO-1; 100 μM H2O2, 1 h) | Fold change, HO-1, 1-Hr (HO-1; 200 μM H2O2, 1 h) | Fold change, HO-1, 1-Hr (HO-1; 350 μM H2O2, 1 h) | Fold change, HO-1, 1-Hr (HO-1; 500 μM H2O2, 1 h) | Fold change in expression, CRYBA, 1-Hr (CRYBA; 200 μM H2O2, 1 h) | Fold change in expression, FosB, 1-Hr (FosB; 50 μM H2O2, 1 h) | Fold change in expression, FosB, 4-Hr (FosB; 50 μM H2O2, 4 h) | Fold change in expression, FosB, 1-Hr (FosB; 100 μM H2O2, 1 h) | Increase in FosL transcription (FosL; after 1 hour of OS, 100 μM and 500 μM H2O2) | Fold change in expression, ATF3, 1-Hr (ATF3; 200 μM H2O2, 1 h) | Fold change in expression, ATF3, 1-Hr (ATF3; 350 μM H2O2, 1 h) | Fold change in expression, cFos, 4-Hr (cFos; 100 μM H2O2, 4 h)
~4 fold: Level of JunB transcriptional activation (JunB; 4 hours, all levels of OS ≧about 100 μM H2O2)
−2 fold: Fold change in expression, CRYBA, 4-Hr (CRYBA; 50 μM H2O2, 4 h)
32 fold: Fold change in expression, cFos, 4-Hr (cFos; 500 μM H2O2, 4 h)
7 fold: Fold change in expression, cFos, 1-Hr (cFos; 350 μM H2O2, 1 h)
0 fold: Fold change, JunB, 1-Hr (JunB; 50 μM H2O2, 1 h) | Fold change, JunB, 1-Hr (JunB; 100 μM H2O2, 1 h) | Fold change, JunB, 1-Hr (JunB; 200 μM H2O2, 1 h) | Fold change, JunB, 1-Hr (JunB; 350 μM H2O2, 1 h) | Fold change in expression, CRYBA, 1-Hr (CRYBA; 50 μM H2O2, 1 h) | Fold change in expression, ATF3, 1-Hr (ATF3; 50 μM H2O2, 1 h) | Fold change in expression, ATF3, 4-Hr (ATF3; 50 μM H2O2, 4 h) | Fold change in expression, ATF3, 1-Hr (ATF3; 100 μM H2O2, 1 h) | Fold change in expression, ATF3, 4-Hr (ATF3; 100 μM H2O2, 4 h) | Fold change in expression, cFos, 1-Hr (cFos; 50 μM H2O2, 1 h) | Fold change in expression, cFos, 1-Hr (cFos; 100 μM H2O2, 1 h)
12 fold: Fold change in expression, cFos, 1-Hr (cFos; 500 μM H2O2, 1 h)
20 fold: Fold change in expression, FosB, 4-Hr (FosB; 350 μM H2O2, 4 h)
does not induce: Induction of CRYAA, CRYBB, and CRYGS crystallin genes [1]
55%: 500 μM H2O2 for up to 4-hours as percent of dose required to induce 10% cell death (LD10) (ARPE-19 cells)
8 fold: Fold change, JunB, 4-Hr (JunB; 100 μM H2O2, 4 h) | Fold change, HO-1, 4-Hr (HO-1; 100 μM H2O2, 4 h) | Fold change, HO-1, 4-Hr (HO-1; 200 μM H2O2, 4 h) | Fold change in expression, ATF3, 4-Hr (ATF3; 350 μM H2O2, 4 h) | Elevation of c-Fos transcription over controls (cFos; after 4 hours of OS)
3 fold: Fold change, JunB, 1-Hr (JunB; 500 μM H2O2, 1 h) | Fold change in expression, CRYBA, 4-Hr (CRYBA; 100 μM H2O2, 4 h) | Fold change in expression, CRYBA, 1-Hr (CRYBA; 350 μM H2O2, 1 h) | Fold change in expression, CRYBA, 4-Hr (CRYBA; 350 μM H2O2, 4 h) | Increase in FosL transcription compared to controls (FosL; 4 hours after OS, highest OS dose) | Fold change in expression, ATF3, 4-Hr (ATF3; 200 μM H2O2, 4 h) | Fold change in expression, ATF3, 1-Hr (ATF3; 500 μM H2O2, 1 h) | Fold change in expression, cFos, 4-Hr (cFos; 200 μM H2O2, 4 h)
16 fold: Fold change in expression, FosB, 1-Hr (FosB; 500 μM H2O2, 1 h) | Fold change in expression, cFos, 4-Hr (cFos; 350 μM H2O2, 4 h)
1 fold: Fold change, JunB, 4-Hr (JunB; 50 μM H2O2, 4 h) | Fold change in expression, CRYBA, 1-Hr (CRYBA; 100 μM H2O2, 1 h) | Fold change in expression, CRYBA, 4-Hr (CRYBA; 200 μM H2O2, 4 h) | Fold change in expression, cFos, 4-Hr (cFos; 50 μM H2O2, 4 h)
